Assay [1] addresses T1, full length human IRAK4 protein (Homo sapiens, UniProt Q9NWZ3).
T1 construct: Purified full length human IRAK4 protein; purchased Signal Chem 112-10G-125
T1 sequence (Q9NWZ3 1-460): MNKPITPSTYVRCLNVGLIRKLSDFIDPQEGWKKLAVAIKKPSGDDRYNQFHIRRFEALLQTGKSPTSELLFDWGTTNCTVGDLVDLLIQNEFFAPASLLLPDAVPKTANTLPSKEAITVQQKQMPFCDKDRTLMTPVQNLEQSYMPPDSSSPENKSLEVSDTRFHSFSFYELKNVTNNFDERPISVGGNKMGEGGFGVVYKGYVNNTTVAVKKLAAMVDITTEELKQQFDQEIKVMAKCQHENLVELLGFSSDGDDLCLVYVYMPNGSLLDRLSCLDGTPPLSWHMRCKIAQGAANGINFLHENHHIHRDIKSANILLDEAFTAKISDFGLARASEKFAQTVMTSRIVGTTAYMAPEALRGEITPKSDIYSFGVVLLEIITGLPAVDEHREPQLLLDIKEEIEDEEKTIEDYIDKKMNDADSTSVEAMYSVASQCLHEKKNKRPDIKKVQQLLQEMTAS
The experiment in a line: IRAK4 Biochemical Assay (Promega ADP-Glo IRAK4 Kinase Enzyme System). The settings on record: 3 nM enzyme, 2 μM MBP, 250 μM ATP, 60 min at room temperature, ADP-Glo luminescence. The protocol: For the routine compound screening, an IRAK4 kinase assay was performed as follows using Promega ADP-Glo IRAK4 Kinase Enzyme System (Promega, Cat #2198-AD). Purified full length human IRAK4 protein (Signal Chem; Cat #112-10G-125) was diluted to a concentration 6 nM in assay buffer (25 mM MOPS, pH 7.2, 12.5 mM β-glycerol-phosphate, 25 mM MgCl2, 5 mM EGTA, 2 mM EDTA, 0.0025% Brij-35, add 0.25 mM DTT to Kinase Assay Buffer prior to use) containing IRAK4 inhibitor at 2× the final concentration in 0.4% DMSO. The reaction was performed in PerkinElmer Proxiplate-384 plus white plate (Fisher Scientific, Cat #50-905-2761) and started by the addition of an equal volume of the assay buffer containing 4 μM native swine myelin basic protein (MBP) and 500 μM ATP to achieve a final concentration of 3 nM enzyme, 2 μM MBP, 250 μM ATP, 1× compound, and 0.2% DMSO. The kinase reaction was allowed to run for 60 min at room temperature (25-27° C.), then 5 μL of ADP-Glo was added to the reaction in each well followed by 40 minutes-incubation at RT. To detect converted ATP, 10 μL Detection Buffer was added into each well and Incubate at RT in dark for 30 minutes. Finally, luminescence was read using Tecan with 1000 ms of integration time. The luminescent signal positively correlates with ADP amount and kinase activity. Data was analyzed by GraphPad Prism and IC50 was calculated using function log(inhibitor) vs. response—Variable slope (four parameters). Percentage of inhibition was calculated as below.
(§1) % inhibition=(1−(Reading(Sample)−Reading(Negative Control))/(Reading(Positive Control)−Reading(Negative Control)))×100%
The 0% inhibition value comes from the Reading of Positive Control wells having 0 nM compound. The 100% inhibition value comes from the Reading of Negative Control wells having no IRAK4 kinase.
A general note: ADP-Glo turns the ADP formed in a reaction into a luminescent signal.

A further assay concerns the target T2, IRAK4 (Homo sapiens, UniProt Q9NWZ3).
T2 construct: host or cells: human PBMCs
T2 sequence (Q9NWZ3 1-460): T1 sequence (Q9NWZ3 1-460)
The experiment in a line: IRAK4 Human PBMC TNFα Cell Based Assay (AlphaLISA). To be noted: TNFα in culture medium. The protocol: In this assay, serially diluted compounds were incubated with 1×10^4 human peripheral blood mononuclear cells (PBMCs) from STEMCELL (Cat #70025.1) per well of 384-well plate (Fisher Scientific; 50-905-2761) and cultured with TexMACS medium (Miltenyi, Cat #130-097-196), stimulated by R848 (0.5 μM) or IL-1β (10 ng/ml). Plates were covered with lids and incubated for 4 h (R848, Fisher Scientific, Cat #NC9801605) or 24 h (IL-1β, Fisher Scientific, Cat #ENRIL1BI) at 37° C. in a humidified tissue-culture incubator. After a brief centrifugation at 1000 rpm for 5 minutes, 5 μl of culture medium was used for the measurement of the TNFα amount using TNFα (human) AlphaLISA Detection Kit (PerkinElmer, Cat #AL208C) according to manufacturer's protocol. A biotinylated anti-TNFα antibody binds to the Streptavidin-coated Donor beads while another anti-TNFα antibody is conjugated to AlphaLISA Acceptor beads. In the presence of the TNFα, the beads come into close proximity. The excitation of the Donor beads causes the release of singlet oxygen molecules that triggers a cascade of energy transfer in the Acceptor beads, resulting in a sharp peak of light emission at 615 nm. AlphaLISA assay plates were read using PHERAstar. Percentage of inhibition was calculated as below:
as §1
The 0% inhibition value comes from the Reading of Positive Control wells having 0 nM compound. The 100% inhibition value comes from the Reading of Negative Control wells having no R848 or IL-1β.
Background: Bead proximity is the source of the signal in Alpha formats.

Setting [2] is: human PBMCs stimulated by IL-1β (10 ng/ml), 24 h, read-out: IRAK4 PBMC AlphaLISA IL-1β (IC50).
The mark [3] stands for this setting: human PBMCs stimulated by R848 (0.5 μM), 4 h, read-out: IRAK4 PBMC AlphaLISA R848 (IC50).

Like-named read-outs stand apart in the source and are kept apart here.

Turning to `c1nn(C2CCOCC2)cc1Nc1nc(N[C@H]2CC[C@H](N3CCOCC3)CC2)c2c(-c3cn[nH]c3)n[nH]c2n1` [Example 3, N^4-((1r,4r)-4-morpholinocyclohexyl)-3-(1H-pyrazol-4-yl)-N^6-(1-(tetrahydro-2H-pyran-4-yl)-1H-pyrazol-4-yl)-1H-pyrazolo[3,4-d]pyrimidine-4,6-diamine], in assay [1], inhibition was half-maximal at 0.012 µM (IC50) and the “IRAK4 Biochemical Assay Max Inhibition (%)” value is listed as 109%.
Regarding `Brc1n[nH]c2nc(Nc3cnn(C4CCOCC4)c3)nc(N[C@H]3CC[C@H](N4CCOCC4)CC3)c12` [Example 1, 3-bromo-N^4-((1r,4r)-4-morpholinocyclohexyl)-N^6-(1-(tetrahydro-2H-pyran-4-yl)-1H-pyrazol-4-yl)-1H-pyrazolo[3,4-d]pyrimidine-4,6-diamine], the IC50 in assay [1] was 0.0042 µM; at IRAK4 (setting [2]), 0.016 µM; on IRAK4 (setting [3]), 0.035 µM. For the same compound, the “IRAK4 Biochemical Assay Max Inhibition (%)” value in assay [1] is reported as 100%.
On the same counts, the results for `Cc1cc(Nc2nc(N[C@H]3CC[C@H](N4CCOCC4)CC3)c3cn[nH]c3n2)sn1` [Example 6, N^6-(3-methylisothiazol-5-yl)-N^4-((1r,4r)-4-morpholinocyclohexyl)-1H-pyrazolo[3,4-d]pyrimidine-4,6-diamine] are 0.012 µM, 0.0009 µM, 0.0016 µM and 100%.
On the same counts, the results for `c1cncc(-c2n[nH]c3nc(Nc4cnn(C5CCOCC5)c4)nc(N[C@H]4CC[C@H](N5CCOCC5)CC4)c23)c1` [Example 2, N^4-((1r,4r)-4-morpholinocyclohexyl)-3-(pyridin-3-yl)-N^6-(1-(tetrahydro-2H-pyran-4-yl)-1H-pyrazol-4-yl)-1H-pyrazolo[3,4-d]pyrimidine-4,6-diamine] are 0.0082 µM, 0.025 µM, 0.024 µM and 100%.
On the same counts, the results for `c1ccc(-c2n[nH]c3nc(Nc4cnn(C5CCOCC5)c4)nc(N[C@H]4CC[C@H](N5CCOCC5)CC4)c23)cc1` [Example 5, N^4-((1r,4r)-4-morpholinocyclohexyl)-3-phenyl-N^6-(1-(tetrahydro-2H-pyran-4-yl)-1H-pyrazol-4-yl)-1H-pyrazolo[3,4-d]pyrimidine-4,6-diamine] are 0.016 µM, 0.056 µM, 0.063 µM and 100%.

For orientation: IC50 means the point on the concentration scale where inhibition reaches its midpoint.

The values are drawn from patent US20220144842A1, “IRAK INHIBITORS, PREPARATION METHOD AND MEDICINAL USES THEREOF” (Eternity Bioscience Inc., priority 2020, published 2022).
